The source of these data is US10030016B2 (Sunesis Pharmaceuticals, Inc., priority 2009, dated 2018).

In general, EC50 refers to the concentration giving half of the maximal effect. A word on the IC50: it is the midpoint of a concentration-inhibition curve. High values mean weaker potency, low ones greater potency.

In test [1] the test system is phospho-akt (Thr308) in PC-3 cells. As to the kind of experiment: Inhibition of phospho-akt (Thr308) in PC-3 cells, MSD phospho-akt 308 ELISA kit. The test is classed as cell-based. The conditions noted are these: Homo sapiens, 2 hours, no serum, read-out: EC50. The essentials:
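Read-out is MSD electrochemiluminescence of Akt phosphorylated at Thr308 in lysates of PC-3 cells treated 2 h with compound in serum-free medium. Wortmannin at 5 μM defined the low control and DMSO the high control.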
On the technique in general: ELISA stands for enzyme-linked immunosorbent assay.

Another test concerns the target PDK1 (Homo sapiens (Human), UniProt O15530). As to the kind of experiment: PDK1 kinase assay (coupled PDK1/AKT/FAM-crosstide assay, IMAP fluorescence polarization). The format is biochemical. A digest of the protocol: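 Inhibition is derived by 4-parameter fitting of ΔmP from an IMAP fluorescence polarization read of FAM-crosstide (100 nM) phosphorylation. The cascade ran 30 min at 25 °C with 40 μM ATP, using insect-cell GST-PDK1 51-359 (0.75 nM) driving 10 nM unphosphorylated AKT2 140-467-PIFtide fusion.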
(In general: Polarisation of emitted light reports the rotation of a fluorescent probe.)

Where [2] appears, read: inhibition of P308 Akt in PC-3 cells, MSD.
Where [3] appears, read: inhibition of phospo-PDK1 in vitro.
The mark [4] stands for this setting: inhibition of P308 Akt in PC-3 cells using MSD.

Where two headings read alike, the source gives them in different places. Some results are limits rather than exact numbers.

Chain of PDK1 (O15530 51-359): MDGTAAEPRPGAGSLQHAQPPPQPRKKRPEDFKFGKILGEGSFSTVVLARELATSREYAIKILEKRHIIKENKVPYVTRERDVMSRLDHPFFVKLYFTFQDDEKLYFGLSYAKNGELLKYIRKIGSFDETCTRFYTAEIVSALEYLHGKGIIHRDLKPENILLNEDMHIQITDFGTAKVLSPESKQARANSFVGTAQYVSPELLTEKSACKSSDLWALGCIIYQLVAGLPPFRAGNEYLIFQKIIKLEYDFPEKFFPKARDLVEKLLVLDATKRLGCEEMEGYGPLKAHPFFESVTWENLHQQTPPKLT

As to `CCCNC(=O)c1cccnc1NCc1cccc(-c2c[nH]c3ncccc23)c1` [Example 1.9, N-propyl-2-{[3-(1H-pyrrolo[2,3-b]pyridin-3-yl)benzyl]amino}pyridine-3-carboxamide], the EC50 in test [1] (setting [2]) was 1000 to 10000 nM. Moreover, at PDK1 (setting [3]), the IC50 is above 5000 nM.

As to `N#Cc1cnc(NCc2ccc(-c3cnc4[nH]nc(N)c4c3)cc2)c(C(=O)Nc2ccc(F)cc2)c1` [Example 35, 2-(4-(3-amino-1H-pyrazolo[3,4-b]pyridin-5-yl)benzylamino)-5-cyano-N-(4-fluorophenyl) nicotinamide], the EC50 in test [1] (setting [2]) was below 1000 nM. The IC50 on PDK1 (setting [3]) is below 100 nM.

As for `O=C(NCC1CCCC1)c1cccnc1NCc1cccc(-c2c[nH]c3ncccc23)c1` [Example 1.8, 2-(3-(1H-pyrrolo[2,3-b]pyridin-3-yl)benzylamino)-N-(cyclopentylmethyl)nicotinamide], the EC50 in test [1] (setting [2]) fell in the range of 1000 to 10000 nM. Besides, the IC50 at PDK1 (setting [3]) was 100 to 1000 nM.

Turning to `CC(C)Oc1cc(CNc2ncccc2C(=O)NCc2ccc(F)c(F)c2)cc(-c2ccc3ncnc(NC4CC4)c3c2)c1` [Example 5.5, 2-(3-(4-(cyclopropylamino)quinazolin-6-yl)-5-isopropoxy-benzylamino)-N-(3,4-difluorobenzyl)nicotinamide], in test [1] (setting [2]), the EC50 is above 10000 nM. In addition, the IC50 against PDK1 (setting [3]) is below 100 nM.

As for `CCCNS(=O)(=O)c1cnc(NCc2ccc(-c3ccc4ncnc(N)c4c3)s2)c(C(=O)NC)c1` [Example 8.6.11, 2-(((5-(4-aminoquinazolin-6-yl)thiophen-2-yl)methyl)amino)-N-methyl-5-(N-propylsulfamoyl) nicotinamide], in test [1] (setting [2]), the EC50 is above 10000 nM. Moreover, the IC50 against PDK1 (setting [3]) was above 5000 nM.

For the compound `NC(=O)c1cc(CNc2ncccc2C(=O)NCc2ccc(F)c(F)c2)ccc1-n1ccnc1` [Example 50, 2-(3-carbamoyl-4-(1H-imidazol-1-yl)benzylamino)-N-(3,4-difluorobenzyl)nicotinamide], the EC50 in test [1] (setting [4]) was above 10000 nM. Also, the IC50 against PDK1 (inhibition of PDK1 in vitro) is above 5000 nM.

With `Cc1cnc2c3cc(-c4ccc(CNc5ncccc5C(=O)N[C@@H](C)c5ccc(F)c(F)c5)s4)ccc3ncn12` [Example 49, (S)-N-(1-(3,4-difluorophenyl)ethyl)-2-((5-(3-methyl-imidazo[1,2-c]quinazolin-9-yl)thiophen-2-ylmethyl)amino) nicotinamide], the EC50 in test [1] (setting [4]) is above 10000 nM. This compound yielded an IC50 against PDK1 (inhibition of PDK1 in vitro) below 100 nM.

For `C[C@H](NC(=O)c1cc(C#N)cnc1NCc1ccc(-c2cnc(N)c(C(=O)NC3CC3)n2)cc1)c1ccc(F)cc1` [Example 218, (S)-3-amino-6-(4-((5-cyano-3-(1-(4-fluorophenyl)ethylcarbamoyl)pyridin-2-ylamino)methyl)phenyl)-N-cyclopropylpyrazine-2-carboxamide], in test [1] (setting [4]), the EC50 is below 1000 nM. The compound further registered an IC50 against PDK1 (inhibition of PDK1 in vitro) below 100 nM.

`C[C@H](NC(=O)c1cc(C#N)cnc1NCc1ccc(-c2cnc(N)c(C(=O)N3CCNCC3)n2)cc1)c1ccc(F)cc1` [Example 221, 2-{4-[5-Amino-6-(piperazine-1-carbonyl)-pyrazin-2-yl]-benzylamino}-5-cyano-N-[(S)-1-(4-fluoro-phenyl)-ethyl]-nicotinamide]: the EC50 in test [1] (setting [4]) is 1000 to 10000 nM. The compound also gave an IC50 against PDK1 (inhibition of PDK1 in vitro) below 100 nM.

For `Nc1ncnc2ccc(-c3csc(Nc4ncccc4C(=O)NCc4ccc(F)c(F)c4)n3)cc12` [Ex. 13, 2-(4-(4-aminoquinazolin-6-yl)thiazol-2-ylamino)-N-(3,4-difluorobenzyl)-nicotinamide], the EC50 in test [1] (setting [2]) is above 10000 nM. The compound also yielded an IC50 on PDK1 (setting [3]) of 1000 to 5000 nM.

In the case of `Cc1nc2cc(-c3ccc(CNc4ncc(C#N)cc4C(=O)N[C@@H](C)c4ccc(F)cc4)cc3)cnc2[nH]1` [Example 138, (S)-5-cyano-N-(1-(4-fluorophenyl)ethyl)-2-(4-(2-methyl-3H-imidazo[4,5-b]pyridin-6-yl)benzylamino) nicotinamide], the EC50 in test [1] (setting [4]) is below 1000 nM. The compound further came in with an IC50 against PDK1 (inhibition of PDK1 in vitro) below 100 nM.

Take `C[C@H](NC(=O)c1cccnc1NC/C=C/c1ccc2c(c1)NC(=O)/C2=C\c1cnc[nH]1)c1ccc(F)cc1` [Example 15.22, 2-((E)-3-((Z)-3-((1H-imidazol-5-yl)methylene)-2-oxoindolin-6-yl)allylamino)-N-((S)-1-(4-fluorophenyl)ethyl) nicotinamide]: the EC50 in test [1] (setting [2]) is below 1000 nM. In addition, the IC50 at PDK1 (setting [3]) was below 100 nM.

With `C[C@@H](c1ccc(F)c(F)c1)n1cnc2ccnc(NCc3ccc(-c4ccc5ncnc(N)c5c4)s3)c2c1=O` [Example 7.10, 5-({[5-(4-aminoquinazolin-6-yl)thiophen-2-yl]methyl}amino)-3-[(1S)-1-(3,4-difluorophenyl)ethyl] pyrido[4,3-d]pyrimidin-4(3H)-one], the EC50 in test [1] (setting [2]) is below 1000 nM. This compound showed an IC50 on PDK1 (setting [3]) below 100 nM.

In the case of `Nc1n[nH]c2ncc(-c3ccc(CNc4ncc(C(F)(F)F)cc4C(=O)Nc4ccc(F)nc4)cc3)cc12` [Example 267, 2-(4-(3-amino-1H-pyrazolo [3,4-b]pyridin-5-yl)benzylamino)-N-(6-fluoropyridin-3-yl)-5-(trifluoromethyl) nicotinamide], in test [1] (setting [4]), the EC50 was below 1000 nM. For the same compound, the IC50 on PDK1 (inhibition of PDK1 in vitro) was below 100 nM.

`Cn1nc(-c2ccc(CNc3ncc(C(F)(F)F)cc3C(=O)NCc3ccc(F)c(F)c3)cc2)c2c(N)ncnc21` [Example 332, 2-(4-(4-amino-1-methyl-1H-pyrazolo[3,4-d]pyrimidin-3-yl)-benzylamino)-N-(3,4-difluorobenzyl)-5-(trifluoromethyl)nicotinamide]: the EC50 in test [1] (setting [4]) lay within 1000 to 10000 nM. This compound came in with an IC50 at PDK1 (inhibition of PDK1 in vitro) below 100 nM.

In the case of `Nc1ncnc2ccc(-c3ccc(CNc4nccnc4C(=O)NCc4ccc(F)c(F)c4)s3)cc12` [Ex. 10.1], the EC50 in test [1] (setting [2]) fell in the range of 1000 to 10000 nM. The IC50 at PDK1 (setting [3]) was below 100 nM.

Take `CC(C)Oc1cc(CNc2ncccc2C(=O)Nc2ccc(C(F)(F)F)cc2)cc(-c2c[nH]c3ncc(C(=O)NC4CC4)cc23)c1` [Example 4.1.2]: in test [1] (setting [2]), the EC50 was above 10000 nM. At PDK1 (setting [3]), the IC50 was above 5000 nM.

`N#Cc1cnc(NCc2ccc(-c3cnc(N)cn3)cc2)c(C(=O)Nc2ccc(F)cc2)n1` [Example 34, 3-(4-(5-aminopyrazin-2-yl)benzylamino)-6-cyano-N-(4-fluorophenyl) pyrazine-2-carboxamide]: in test [1] (setting [2]), the EC50 was below 1000 nM. Moreover, the IC50 against PDK1 (setting [3]) was below 100 nM.

Take `COCC#Cc1cnc(NCc2ccc(-c3ccc4ncnc(N)c4c3)s2)c(C(=O)N[C@@H](C)c2ccc(F)c(F)c2)n1` [Ex. 10.8, 3-({[5-(4-aminoquinazolin-6-yl)thiophen-2-yl]methyl}amino)-N-[(1S)-1-(3,4-difluorophenyl)ethyl]-6-(3-methoxyprop-1-yn-1-yl)pyrazine-2-carboxamide]: in test [1] (setting [2]), the EC50 was below 1000 nM. The IC50 at PDK1 (setting [3]) was in the range of 100 to 1000 nM.

As to `C[C@H](NC(=O)c1cc(C#N)cnc1NCc1ccc(-c2ccc3c(N)ncnn23)cc1)c1ccc(F)cc1` [Example 178, 2-[4-(4-Amino-pyrrolo [2,1-f][1,2,4]triazin-7-yl)-benzylamino]-5-cyano-N-[(S)-1-(4-fluoro-phenyl)-ethyl]-nicotinamide], the EC50 in test [1] (setting [4]) fell in the range of 1000 to 10000 nM. The same compound had an IC50 against PDK1 (inhibition of PDK1 in vitro) below 100 nM.

In the case of `Nc1ncnc2ccc(-c3ccc(CNc4ncc(S(=O)(=O)NCCO)cc4C(=O)NCc4ccc(F)c(F)c4)s3)cc12` [Example 343, 2-((5-(4-aminoquinazolin-6-yl)thiophen-2-yl)methyl)amino)-(N-(3,4-difluorobenzyl)-5-(N-(2-hydroxyethyl)sulfamoyl)nicotinamide], the EC50 in test [1] (setting [4]) is below 1000 nM. Further, the IC50 at PDK1 (inhibition of PDK1 in vitro) was below 100 nM.

As to `Nc1n[nH]c2ncc(-c3ccc(CNc4ncc(C(F)(F)F)nc4C(=O)Nc4ccc(F)cc4)cc3)cc12` [Example 39, 3-(4-(3-amino-1H-pyrazolo[3,4-b]pyridin-5-yl)benzylamino)-N-(4-fluorophenyl)-6-(trifluoromethyl)pyrazine-2-carboxamide], the EC50 in test [1] (setting [2]) was below 1000 nM. Moreover, on PDK1 (setting [3]), the IC50 was below 100 nM.

On to `Nc1n[nH]c2ncc(-c3ccc(CNc4ncc(C(F)(F)F)cc4C(=O)NCCC4CC4)cc3)cc12` [Example 269, 2-(4-(3-amino-1H-pyrazolo [3,4-b]pyridin-5-yl)benzylamino)-N-(2-cyclopropylethyl)-5-(trifluoromethyl) nicotinamide], for which, in test [1] (setting [4]), the EC50 was 1000 to 10000 nM. The IC50 at PDK1 (inhibition of PDK1 in vitro) is below 100 nM.

Take `Cc1n[nH]c2ncc(-c3ccc(CNc4ncc(C#N)nc4C(=O)N[C@@H](C)c4ccc(F)c(F)c4)cc3)cc12` [Example 410, (S)-6-cyano-N-(1-(3,4-difluorophenyl)ethyl)-3-(4-(3-methyl-1H-pyrazolo [3,4-b]pyridin-5-yl)benzylamino)pyrazine-2-carboxamide]: in test [1] (setting [4]), the EC50 was below 1000 nM. Further, the IC50 at PDK1 (inhibition of PDK1 in vitro) is below 100 nM.

Take `Cn1c(-c2ccc(CNc3ncc(C(F)(F)F)cc3C(=O)Nc3ccc(F)cc3)cc2)cc2c(N)ncnc21` [Example 337, 2-(4-(4-amino-7-methyl-7H-pyrrolo[2,3-d]pyrimidin-6-yl)-benzylamino)-N-(4-fluorophenyl)-5-(trifluoromethyl)nicotinamide]: in test [1] (setting [4]), the EC50 is 1000 to 10000 nM. Moreover, the IC50 at PDK1 (inhibition of PDK1 in vitro) is below 100 nM.

On to `N#Cc1cnc2c(c1)c(NCc1ccc(F)c(F)c1)nn2Cc1ccc(-c2cnc(N)cn2)cc1` [Example 259, 1-(4-(5-aminopyrazin-2-yl)benzyl)-3-(3,4-difluorobenzylamino)-1H-pyrazolo[3,4-b]pyridine-5-carbonitrile], for which the EC50 in test [1] (setting [4]) was above 10000 nM. On PDK1 (inhibition of PDK1 in vitro), the IC50 was in the range of 100 to 1000 nM.
